Like-named read-outs stand apart in the source and are kept apart here.

Data set [1] is described as follows: Body weight on day 1 and day 42 of treatment. Type of data set: in vivo, rat. Conditions: young and old rats, 10 mg kg^-1 p.o. daily. The method, then:
For the analysis of cell survival and cell differentiation, all rats received intraperitoneal injections of BrdU (Sigma, Germany) at 50 mg kg^−1 of body weight dissolved in 0.9% saline solution on day 12, 13, 14 and 15.
GPR17 is highly expressed in food-intake-regulating Agrp Neurons, and intraventricular infusion of GPR17 agonists elevates food intake (Ren, 2012, Cell, 8; 149(6):1314-26). […] Therefore, each rat was weighed at the beginning of the experiment (day 1) and directly before the perfusion (day 42).

In data set [2] the test system is neural progenitor cells (NPC). Conditions: cited from earlier work; for influence on the proliferation of NPCs: treatment of NPCs with leukotriene.
The next data set deals with neural stem cell (NSC). The note with it: cited from earlier work.
For a further data set, the system named is young rats. Conditions: intraperitoneal, combination treatment with rofecoxib; cited from earlier work.
Data set [3] relates to CysLT1R-mediated amyloid-beta generation. Conditions: cited from earlier work.
In data set [4] the test system is Alzheimer's disease patients. The note with it: cited from earlier work.

Turning to `CC(C)(O)c1ccccc1CC[C@@H](SCC1(CC(=O)O)CC1)c1cccc(/C=C/c2ccc3ccc(Cl)cc3n2)c1` [Montelukast, montelukast], the “body weight vs vehicle treated counterparts” value in data set [1] is “did not differ”; in data set [1] (listed as montelukast), “remained stable”. Further, the NPC proliferation rate result in data set [2] (1 μM) and in data set [2] (30 μM) was “did not alter” in each case. The NPC proliferation result was “increased proliferation” in data set [2] (10 μM), “increased proliferation” in data set [2] (15 μM), “significant reduction” in data set [2] (50 μM) and “significant reduction” in data set [2] (100 μM). Moreover, the NSC proliferation result in the data set on neural stem cell (NSC) (15 μM) is “significantly increase”. The “proliferative potential of the NSCs” value in the data set on neural stem cell (NSC) (30 μM) and in the data set on neural stem cell (NSC) (100 μM) was “significantly reduced” throughout. Also, the “effect against kainic acid-induced cognitive dysfunction in combination with rofecoxib” value in the data set with young rats is listed as “potentiates the protective effect of rofecoxib”.
pranlukast: the “leukotriene D4-induced increase in amyloid-beta generation” value in data set [3] (3 month old mice, injected bilaterally 2.5 mm below the dura) was “inhibited”. For the same compound, the “learning impairment and memory loss caused by leukotriene D4 treatment” value in data set [3] (mice, sub-dura injection) is on record as “improves”.
In the case of `CCCCC/C=C\C\C=C/C=C/C=C/[C@@H](SC[C@H](NC(=O)CC[C@H](N)C(=O)O)C(=O)NCC(=O)O)[C@@H](O)CCCC(=O)O` [Leukotriene C4], in data set [2], the “influence on the proliferation of NPCs” value is “no influence”.
In the case of `COc1ccc2c(c1)c(CC(=O)O)c(C)n2C(=O)c1ccc(Cl)cc1` [indomethacin], the mental functions entry in data set [4] was “stabilize mental functions”.
`CCCCC/C=C\C\C=C/C=C/C=C/[C@@H](SC[C@H](N)C(=O)NCC(=O)O)[C@@H](O)CCCC(=O)O` [Leukotriene D4]: the “influence on the proliferation of NPCs” value in data set [2] is reported as “no influence”. Besides, the effect on cognition result in data set [3] (3 month old mice) is listed as “induce cognitive impairment”.
